Measurements published in PubChem BioAssay AID1788 (Vanderbilt High Throughput Screening Facility, 2009).
Active and inactive are the calls of the source. How the calls were made is not given here.

Key:
Experiment in all cases: PubChem AID 1788
[1] = biological target: 5-hydroxytryptamine receptor 1A (Homo sapiens) (UniProt P08908); settings: MDS Pharma lead profiling panel, radioligand binding; Serotonin (5-Hydroxytryptamine) 5-HT1A (human); at 10 µM; stronger effect = higher value
Adenosine A1 (human) = settings: MDS Pharma lead profiling panel, radioligand binding, at 10 µM, stronger effect = higher value
Adenosine A2 (human) = settings: MDS Pharma lead profiling panel, radioligand binding, at 10 µM, stronger effect = higher value
Adenosine A3 (human) = settings: MDS Pharma lead profiling panel, radioligand binding, at 10 µM, stronger effect = higher value
Adrenergic a1A (rat) = settings: MDS Pharma lead profiling panel, radioligand binding, at 10 µM, stronger effect = higher value
Adrenergic a1D (human) = settings: MDS Pharma lead profiling panel, radioligand binding, at 10 µM, stronger effect = higher value
Adrenergic b1 (human) = settings: MDS Pharma lead profiling panel, radioligand binding, at 10 µM, stronger effect = higher value
[2] = biological target: Beta-2 adrenergic receptor (Homo sapiens) (UniProt P07550); settings: MDS Pharma lead profiling panel, radioligand binding; Adrenergic b2 (human); at 10 µM; stronger effect = higher value
Bradykinin B1 (human) = settings: MDS Pharma lead profiling panel, radioligand binding, at 10 µM, stronger effect = higher value
Bradykinin B2 (human) = settings: MDS Pharma lead profiling panel, radioligand binding, at 10 µM, stronger effect = higher value
[3] = tested on: Calcium channel N-type (rat); settings: MDS Pharma lead profiling panel, radioligand binding, at 10 µM, stronger effect = higher value
[4] = biological target: D(3) dopamine receptor (Homo sapiens) (UniProt P35462); settings: MDS Pharma lead profiling panel, radioligand binding; Dopamine D3 (human); at 10 µM; stronger effect = higher value
[5] = biological target: Delta-type opioid receptor (Homo sapiens) (UniProt P41143); settings: MDS Pharma lead profiling panel, radioligand binding; Opiate d (OP1, DOP) (human); at 10 µM; stronger effect = higher value
Dopamine D4.2 (human) = settings: MDS Pharma lead profiling panel, radioligand binding, at 10 µM, stronger effect = higher value
Endothelin ETA (human) = settings: MDS Pharma lead profiling panel, radioligand binding, at 10 µM, stronger effect = higher value
[6] = tested on: Epidermal Growth Factor (EGF) (human); settings: MDS Pharma lead profiling panel, radioligand binding, at 10 µM, stronger effect = higher value
[7] = biological target: Estrogen receptor (Homo sapiens) (UniProt P03372); settings: MDS Pharma lead profiling panel, radioligand binding; Estrogen ER a (human); at 10 µM; stronger effect = higher value
[8] = tested on: G protein-coupled receptor GPR103 (human); settings: MDS Pharma lead profiling panel, radioligand binding, at 10 µM, stronger effect = higher value
Histamine H1 (human) = settings: MDS Pharma lead profiling panel, radioligand binding, at 10 µM, stronger effect = higher value
Histamine H2 (human) = settings: MDS Pharma lead profiling panel, radioligand binding, at 10 µM, stronger effect = higher value
[9] = tested on: Imidazoline I2 central (rat); settings: MDS Pharma lead profiling panel, radioligand binding, at 10 µM, stronger effect = higher value
[10] = tested on: Leukotriene Cysteinyl CysLT1 (human); settings: MDS Pharma lead profiling panel, radioligand binding, at 10 µM, stronger effect = higher value
Melatonin MT1 (human) = settings: MDS Pharma lead profiling panel, radioligand binding, at 10 µM, stronger effect = higher value
[11] = biological target: Mu-type opioid receptor (Homo sapiens) (UniProt P35372); settings: MDS Pharma lead profiling panel, radioligand binding; Opiate m (OP3, MOP) (human); at 10 µM; stronger effect = higher value
[12] = biological target: Muscarinic acetylcholine receptor M2 (Homo sapiens) (UniProt P08172); settings: MDS Pharma lead profiling panel, radioligand binding, at 10 µM, stronger effect = higher value
[13] = biological target: Muscarinic acetylcholine receptor M3 (Homo sapiens) (UniProt P20309); settings: MDS Pharma lead profiling panel, radioligand binding, at 10 µM, stronger effect = higher value
[14] = biological target: Neuropeptide Y receptor type 1 (Homo sapiens) (UniProt P25929); settings: MDS Pharma lead profiling panel, radioligand binding; Neuropeptide Y Y1 (human); at 10 µM; stronger effect = higher value
[15] = tested on: Nicotinic Acetylcholine (human); settings: MDS Pharma lead profiling panel, radioligand binding, at 10 µM, stronger effect = higher value
[16] = biological target: Potassium Channel K ATP (hamster) (UniProt P49658); settings: MDS Pharma lead profiling panel, radioligand binding, at 10 µM, stronger effect = higher value
Sigma s1 (human) = settings: MDS Pharma lead profiling panel, radioligand binding, at 10 µM, stronger effect = higher value
Sigma s2 (rat) = settings: MDS Pharma lead profiling panel, radioligand binding, at 10 µM, stronger effect = higher value
Tachykinin NK1 (human) = settings: MDS Pharma lead profiling panel, radioligand binding, at 10 µM, stronger effect = higher value
[17] = tested on: Transporter, Serotonin (5-Hydroxytryptamine) (SERT) (human); settings: MDS Pharma lead profiling panel, radioligand binding, at 10 µM, stronger effect = higher value
[18] = biological target: Voltage-gated inwardly rectifying potassium channel KCNH2 (Homo sapiens) (UniProt Q12809); settings: MDS Pharma lead profiling panel, radioligand binding; Potassium Channel hERG (human); at 10 µM; stronger effect = higher value
Voltage-gated inwardly rectifying potassium channel KCNH2 (Homo sapiens), sequence (Q12809 whole entry, looked up): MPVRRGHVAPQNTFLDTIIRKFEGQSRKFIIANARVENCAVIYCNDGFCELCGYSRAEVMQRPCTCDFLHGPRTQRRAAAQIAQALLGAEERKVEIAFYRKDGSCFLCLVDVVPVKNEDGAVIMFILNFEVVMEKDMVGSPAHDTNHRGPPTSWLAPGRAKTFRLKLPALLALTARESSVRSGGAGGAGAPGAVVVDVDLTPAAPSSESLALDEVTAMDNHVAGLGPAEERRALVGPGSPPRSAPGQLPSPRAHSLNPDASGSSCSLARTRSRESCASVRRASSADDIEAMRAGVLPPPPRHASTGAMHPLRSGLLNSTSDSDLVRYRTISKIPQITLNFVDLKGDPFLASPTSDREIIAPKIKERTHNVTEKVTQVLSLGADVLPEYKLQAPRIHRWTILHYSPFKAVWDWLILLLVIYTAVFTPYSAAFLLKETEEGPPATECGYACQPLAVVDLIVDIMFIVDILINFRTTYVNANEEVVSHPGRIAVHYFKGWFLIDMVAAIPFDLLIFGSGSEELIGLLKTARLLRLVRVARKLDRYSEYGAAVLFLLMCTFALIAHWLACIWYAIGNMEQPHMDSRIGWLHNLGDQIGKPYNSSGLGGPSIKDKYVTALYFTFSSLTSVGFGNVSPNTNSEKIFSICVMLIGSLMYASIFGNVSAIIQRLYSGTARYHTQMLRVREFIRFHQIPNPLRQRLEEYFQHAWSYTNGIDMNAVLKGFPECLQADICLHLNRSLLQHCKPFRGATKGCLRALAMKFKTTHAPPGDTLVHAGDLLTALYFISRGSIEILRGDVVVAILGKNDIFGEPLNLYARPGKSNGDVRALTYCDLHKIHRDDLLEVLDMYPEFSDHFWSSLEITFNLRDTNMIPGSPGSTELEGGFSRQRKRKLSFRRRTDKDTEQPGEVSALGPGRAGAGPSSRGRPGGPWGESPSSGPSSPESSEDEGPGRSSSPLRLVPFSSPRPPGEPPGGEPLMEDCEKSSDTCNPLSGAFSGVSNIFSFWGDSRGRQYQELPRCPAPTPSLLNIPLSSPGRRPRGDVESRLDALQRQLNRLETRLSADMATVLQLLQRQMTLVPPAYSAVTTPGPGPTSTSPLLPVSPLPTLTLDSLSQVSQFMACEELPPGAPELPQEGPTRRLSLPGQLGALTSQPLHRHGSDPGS

Neuropeptide Y receptor type 1 (Homo sapiens), sequence (P25929 whole entry, looked up): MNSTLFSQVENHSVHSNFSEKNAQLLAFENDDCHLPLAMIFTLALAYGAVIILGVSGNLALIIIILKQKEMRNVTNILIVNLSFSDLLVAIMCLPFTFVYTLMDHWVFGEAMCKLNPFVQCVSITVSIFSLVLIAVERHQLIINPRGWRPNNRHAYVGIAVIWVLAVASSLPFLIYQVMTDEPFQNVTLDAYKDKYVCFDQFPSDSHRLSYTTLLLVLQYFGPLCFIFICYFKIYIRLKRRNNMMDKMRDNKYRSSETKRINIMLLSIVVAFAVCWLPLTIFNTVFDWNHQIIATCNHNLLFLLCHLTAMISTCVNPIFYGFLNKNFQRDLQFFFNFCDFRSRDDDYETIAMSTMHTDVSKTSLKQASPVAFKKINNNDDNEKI
Mu-type opioid receptor (Homo sapiens), sequence (P35372 whole entry, looked up): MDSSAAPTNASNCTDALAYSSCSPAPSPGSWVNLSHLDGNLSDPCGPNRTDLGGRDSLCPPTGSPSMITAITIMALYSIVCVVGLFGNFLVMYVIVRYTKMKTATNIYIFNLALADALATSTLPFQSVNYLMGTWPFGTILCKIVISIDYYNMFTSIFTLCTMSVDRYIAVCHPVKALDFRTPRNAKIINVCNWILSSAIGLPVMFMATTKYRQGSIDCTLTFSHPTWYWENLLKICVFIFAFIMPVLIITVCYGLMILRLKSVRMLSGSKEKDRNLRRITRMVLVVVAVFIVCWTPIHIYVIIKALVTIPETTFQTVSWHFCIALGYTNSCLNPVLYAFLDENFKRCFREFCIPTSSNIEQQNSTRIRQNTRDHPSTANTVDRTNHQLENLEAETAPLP
Potassium Channel K ATP (hamster), sequence (P49658 whole entry, looked up): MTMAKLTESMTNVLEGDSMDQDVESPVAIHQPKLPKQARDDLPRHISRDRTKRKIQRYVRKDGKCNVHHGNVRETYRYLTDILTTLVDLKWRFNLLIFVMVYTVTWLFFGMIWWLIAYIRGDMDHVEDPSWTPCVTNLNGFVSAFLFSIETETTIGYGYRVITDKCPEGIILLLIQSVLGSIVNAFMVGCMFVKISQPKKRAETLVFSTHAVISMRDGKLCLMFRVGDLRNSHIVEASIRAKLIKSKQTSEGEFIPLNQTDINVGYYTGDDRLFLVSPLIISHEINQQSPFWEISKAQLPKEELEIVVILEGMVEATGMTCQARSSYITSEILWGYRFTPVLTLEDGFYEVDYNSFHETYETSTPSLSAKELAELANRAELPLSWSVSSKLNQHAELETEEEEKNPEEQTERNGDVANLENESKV
Muscarinic acetylcholine receptor M2 (Homo sapiens), sequence (P08172 whole entry, looked up): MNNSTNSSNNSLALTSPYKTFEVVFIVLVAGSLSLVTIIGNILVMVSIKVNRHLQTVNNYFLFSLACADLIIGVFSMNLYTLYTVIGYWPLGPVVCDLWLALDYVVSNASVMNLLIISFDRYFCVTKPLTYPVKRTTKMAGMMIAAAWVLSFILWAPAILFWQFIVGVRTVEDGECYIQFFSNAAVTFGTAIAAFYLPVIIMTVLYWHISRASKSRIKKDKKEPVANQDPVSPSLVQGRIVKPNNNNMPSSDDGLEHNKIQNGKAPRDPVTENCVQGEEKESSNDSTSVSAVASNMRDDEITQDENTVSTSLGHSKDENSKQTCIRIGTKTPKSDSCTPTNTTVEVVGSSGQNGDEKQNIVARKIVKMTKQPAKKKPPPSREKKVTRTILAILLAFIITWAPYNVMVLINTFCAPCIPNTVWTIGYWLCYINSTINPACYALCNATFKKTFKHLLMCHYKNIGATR
D(3) dopamine receptor (Homo sapiens), sequence (P35462 whole entry, looked up): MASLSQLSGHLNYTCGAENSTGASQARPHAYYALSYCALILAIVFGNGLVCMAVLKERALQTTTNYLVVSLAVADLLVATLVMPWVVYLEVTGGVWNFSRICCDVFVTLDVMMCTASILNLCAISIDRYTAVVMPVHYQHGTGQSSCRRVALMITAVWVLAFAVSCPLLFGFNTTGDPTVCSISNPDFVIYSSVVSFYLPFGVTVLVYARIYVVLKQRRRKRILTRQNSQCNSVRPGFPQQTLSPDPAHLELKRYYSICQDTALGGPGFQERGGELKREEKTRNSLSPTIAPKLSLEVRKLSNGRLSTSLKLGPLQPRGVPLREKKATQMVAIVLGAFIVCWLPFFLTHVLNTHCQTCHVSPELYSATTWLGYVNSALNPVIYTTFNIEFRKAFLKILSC
5-hydroxytryptamine receptor 1A (Homo sapiens), sequence (P08908 whole entry, looked up): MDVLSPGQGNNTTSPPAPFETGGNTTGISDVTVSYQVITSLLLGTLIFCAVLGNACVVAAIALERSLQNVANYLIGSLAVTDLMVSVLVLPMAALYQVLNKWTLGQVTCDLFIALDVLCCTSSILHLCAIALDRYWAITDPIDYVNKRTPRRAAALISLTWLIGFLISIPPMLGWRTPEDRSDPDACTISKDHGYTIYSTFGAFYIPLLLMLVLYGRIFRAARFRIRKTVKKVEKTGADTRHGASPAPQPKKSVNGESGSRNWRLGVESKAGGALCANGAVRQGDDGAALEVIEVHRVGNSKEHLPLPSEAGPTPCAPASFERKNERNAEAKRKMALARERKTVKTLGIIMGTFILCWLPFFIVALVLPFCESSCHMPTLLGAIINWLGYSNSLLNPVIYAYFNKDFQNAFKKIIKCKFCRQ
Beta-2 adrenergic receptor (Homo sapiens), sequence (P07550 whole entry, looked up): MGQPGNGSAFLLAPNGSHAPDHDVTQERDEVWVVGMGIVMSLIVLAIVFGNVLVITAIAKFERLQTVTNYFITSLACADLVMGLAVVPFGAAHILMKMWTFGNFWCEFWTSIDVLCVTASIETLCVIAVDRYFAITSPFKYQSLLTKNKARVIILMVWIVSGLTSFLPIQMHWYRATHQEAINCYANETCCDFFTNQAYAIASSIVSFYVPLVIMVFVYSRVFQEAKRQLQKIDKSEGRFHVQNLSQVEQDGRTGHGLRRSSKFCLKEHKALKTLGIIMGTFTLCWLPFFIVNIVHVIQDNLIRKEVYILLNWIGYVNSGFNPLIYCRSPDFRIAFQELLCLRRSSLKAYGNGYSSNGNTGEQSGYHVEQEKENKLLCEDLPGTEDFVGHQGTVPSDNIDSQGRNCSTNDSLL
Delta-type opioid receptor (Homo sapiens), sequence (P41143 whole entry, looked up): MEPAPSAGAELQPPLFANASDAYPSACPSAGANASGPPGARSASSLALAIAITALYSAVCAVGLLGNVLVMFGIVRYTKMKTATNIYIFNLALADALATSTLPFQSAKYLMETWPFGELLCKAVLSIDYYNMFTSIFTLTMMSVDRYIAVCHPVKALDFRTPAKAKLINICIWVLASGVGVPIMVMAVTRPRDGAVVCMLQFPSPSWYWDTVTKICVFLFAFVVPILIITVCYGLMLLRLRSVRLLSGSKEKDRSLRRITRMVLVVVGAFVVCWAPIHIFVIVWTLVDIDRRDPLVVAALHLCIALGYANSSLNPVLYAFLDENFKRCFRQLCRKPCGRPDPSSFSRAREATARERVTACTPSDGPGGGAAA

Compound: CCOC(=O)N1CCC(NCCNC(=O)c2ccccc2C)CC1
- inhibition [1]: 25% (inactive)
- inhibition (Adenosine A1 (human)): -4% (inactive)
- inhibition (Adenosine A2 (human)): 7% (inactive)
- inhibition (Adenosine A3 (human)): 7% (inactive)
- inhibition (Adrenergic a1A (rat)): 53%
- inhibition (Adrenergic a1D (human)): 28% (inactive)
- inhibition (Adrenergic b1 (human)): 4% (inactive)
- inhibition [2]: -1% (inactive)
- inhibition (Bradykinin B1 (human)): 8% (inactive)
- inhibition (Bradykinin B2 (human)): 9% (inactive)
- inhibition [3]: 8% (inactive)
- inhibition [4]: 48% (inactive)
- inhibition [5]: -7% (inactive)
- inhibition (Dopamine D4.2 (human)): 52% (inactive)
- inhibition (Endothelin ETA (human)): 8% (inactive)
- inhibition [6]: -3% (inactive)
- inhibition [7]: 5% (inactive)
- inhibition [8]: 9% (inactive)
- inhibition (Histamine H1 (human)): -4% (inactive)
- inhibition (Histamine H2 (human)): 27% (inactive)
- inhibition [9]: 19% (inactive)
- inhibition [10]: 5% (inactive)
- inhibition (Melatonin MT1 (human)): 25% (inactive)
- inhibition [11]: -4% (inactive)
- inhibition [12]: 1% (inactive)
- inhibition [13]: -14% (inactive)
- inhibition [14]: 0% (inactive)
- inhibition [15]: 2% (inactive)
- inhibition [16]: -9% (inactive)
- inhibition (Sigma s1 (human)): 69% (inactive)
- inhibition (Sigma s2 (rat)): 44% (inactive)
- inhibition (Tachykinin NK1 (human)): -8% (inactive)
- inhibition [17]: -5% (inactive)
- inhibition [18]: 1% (inactive)
